Laboratory results from paper PMC6662706, “Short amylin receptor antagonist peptides improve memory deficits in Alzheimer’s disease mouse model” (Scientific Reports, 2019).
No end group written: not given here.

Assays:
HEK-WT cells = assay: Flow cytometry cell binding and uptake of Cy5.5 labeled peptides, HEK-WT cells; assay type: cell-based, human; conditions: Cy5.5 labeled peptides 5 µM, 1 h, 37 °C
Experimental: Next, we labeled R5, R14 peptides with Cy5.5 to examine their in vitro binding efficacy and specificity compared with AC253 in HEK-AMY3 cells using flow cytometry and fluorescence microscopy (Fig. 1A,C).
For flow cytometry studies, HEK-AMY3 cells were used to determine cell binding and uptake and binding of Cy5.5 labeled AC253, and R5, R14, R11 fragments. Cell were plated at a density of 1.5 × 10^5 cells/well and cultured overnight in 12-well plates at 37 °C. Peptides (5 µM) were added and incubated for 1 h at 37 °C in serum free media. The culture media was then discarded, and cell monolayers were washed with PBS containing 2 mM EDTA and 0.5% BSA adjusted to pH 7.4 at 37°C, then cells were washed again with cold buffer and incubated with 0.25% trypsin to remove cell surface–associated fluorophores. Cells were then dispersed in FACS solution (10% FBS in PBS), and analyzed using a FACSCanto II flow cytometer (BD Biosciences, USA) selecting a detection window between 720 and 840 nm, and fluorescence histograms and dot plots were generated using FLOWJO software (Tree Star, Inc, USA). At least 10,000 gated events per sample were analyzed to develop the histogram. HEK-WT cells was used as negative control.

hippocampal LTP (CA1) = assay: Hippocampal long-term potentiation (LTP) in slices from wild type mice; design: species or system mouse
Experimental: We examined whether the peptide fragments were capable of influencing Aβ- or hAmylin-induced reduction of hippocampal LTP in mice. Exposure of hippocampal slices from wild-type mice to hAmylin (50 nM) or Aβ (50 nM) depressed LTP induced by a weak tetanization protocol at the CA1 region as previously reported[20],[30]. To determine whether peptides affected hAmylin or Aβ- induced depression of LTP, we applied 250 nM R5 or R14 continuously for 5 min prior to exposure of the hippocampal slices to 50 nM hAmylin or Aβ and the subsequent LTP induction. […] We therefore sought to determine whether peptide fragments were also capable of improving LTP levels in the same TgCRND8 AD mouse model. […] Importantly, doses of the short peptide fragments used in these experiments were equimolar to those used for AC253 and pramlintide in our previous studies[20],[30].
For electrophysiology experiment, hippocampal slices (400-μm thick) were prepared using a vibratome from wild type and TgCRND8 mice (8 month of age, male or female). For long-term potentiation (LTP) measurement, the stimulus strength was set to elicit 40–50% of the maximum fEPSP (field excitatory postsynaptic potential) amplitude and test pulses were delivered once every 30s. LTP was induced by 3-theta-burst stimulation protocol (each burst consisted of four pulses at 100 Hz with a 200-ms interburst interval). All drugs and chemicals were applied directly to the slice via bath perfusion.
Brains were quickly removed from mice following decapitation, placed in a cold artificial cerebral spinal fluid (aCSF) on a vibratome chamber, and transverse sections cut through the hippocampus. The aCSF contained (in millimolar 124 NaCl, 3 KCl, 2.4 CaCl2, 2 MgCl2, 1.25 NaH2PO4, 26 NaHCO3, and 10 D-glucose and was equilibrated with 95 % O2 and 5 % CO2. Hippocampal slices (400-μm thick) were maintained in aCSF-filled holding chamber at room temperature for at least 1 h and individually transferred to the submerged glass bottom recording chamber, which was constantly perfused with aCSF (2 ml/min) at 30 °C. Field excitatory postsynaptic potential (fEPSP) was recorded with a metallic (Pt/Ir) electrode (FHC, Bowdoin, ME) from the stratum radiatum layer of Cornu ammonis 1 region of the hippocampus (CA1) area, and the Schaffer collateral afferents were stimulated with 100-μs test pulses via a bipolar cluster electrode (FHC). For long-term potentiation (LTP) experiments, the stimulus strength was set to elicit 40–50 % of the maximum fEPSP amplitude and test pulses were delivered to Schaffer collaterals once every 30 s. […] Before 3-TBS or drug application, the responses were monitored for at least 10 min to ensure a stable baseline of fEPSP. […]

[1] = Observation for off-target effects and body weight during 5 weeks of treatment; assay type: in vivo, mouse; conditions: mice
Experimental: The determination of injection amount of R5 (200 µg/kg) was based on achieving equimolar concentrations as the full length peptide, cAC253[21] and prior studies that used pramlintide injections[22],[23]. The normal mouse circulated endogenous amylin level is 0.7 ± 0.4 pmol/L in plasma[32] and based upon our in vitro data (Fig. 1E) unlikely to perturb the function of peptides in vivo at these concentrations.

Substance | binding and uptake in HEK-WT cells compared to HEK-AMY3 cells (HEK-WT cells) | effect of peptide alone on hippocampal LTP (hippocampal LTP (CA1); wild type mouse slices, 250 nM) | effect on Aβ-induced depression of hippocampal LTP (hippocampal LTP (CA1); wild-type mouse slices, peptide 250 nM for 5 min before Aβ1–42 50 nM, n = 6 recordings) | effect on hAmylin-induced depression of hippocampal LTP (hippocampal LTP (CA1); wild-type mouse slices, peptide 250 nM for 5 min before hAmylin 50 nM, n = 6 recordings) | body weight ([1]; 5 weeks of ip treatment) | signs of off-target effects (sedation, gait, feeding or drinking, weight loss, hair loss, grooming) ([1]; 5 weeks of ip treatment three times a week)
LGRLSQELHRLQTYPRTNTGSNTY-NH2 (C-terminus assumed) [AC253, reference compound] | reduced binding and uptake | – | – | – | – | –
SQELHRLQTYPR-NH2 [R5] | – | did not impair LTP | reversed | reversed | no significant changes in body weight | None of the mice receiving cAC253 or R5 showed any signs of off-target effects
